Where two headings read alike, the source gives them in different places.
How the values were obtained:
[1] = molecular target: T1, rat histamine H3 receptor (Rattus norvegicus, UniProt Q9QYN8); experiment: Rat H3 radioligand binding ([3H]-N-alpha-methylhistamine, CHO-A3 cell membranes, SPA)
T1 construct: encoding the entire 445-amino-acid rat histamine H3 receptor; expressed in transfected cells
In short: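 Scintillation proximity displacement of about 1 nM [3H]-N-alpha-methylhistamine, test compound 0.01 nM-30 μM, 4 h, room temperature, in the dark. Receptor source: rat H3 stably transfected into CHO-A3 cells, 10 μg membrane protein, Tris-HCl pH 7.4/MgCl2/BSA buffer. Nonspecific binding defined by 10 μM clobenpropit.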

human H3 receptor = molecular target: T2, human H3 receptor (Homo sapiens, UniProt Q9Y5N1); experiment: Human H3 radioligand binding ([3H]-N-alpha-methylhistamine, CHO cell membranes, SPA); conditions: binding constant as letter class
T2 construct: expressed in transfected cells
T2 sequence (Q9Y5N1 whole entry): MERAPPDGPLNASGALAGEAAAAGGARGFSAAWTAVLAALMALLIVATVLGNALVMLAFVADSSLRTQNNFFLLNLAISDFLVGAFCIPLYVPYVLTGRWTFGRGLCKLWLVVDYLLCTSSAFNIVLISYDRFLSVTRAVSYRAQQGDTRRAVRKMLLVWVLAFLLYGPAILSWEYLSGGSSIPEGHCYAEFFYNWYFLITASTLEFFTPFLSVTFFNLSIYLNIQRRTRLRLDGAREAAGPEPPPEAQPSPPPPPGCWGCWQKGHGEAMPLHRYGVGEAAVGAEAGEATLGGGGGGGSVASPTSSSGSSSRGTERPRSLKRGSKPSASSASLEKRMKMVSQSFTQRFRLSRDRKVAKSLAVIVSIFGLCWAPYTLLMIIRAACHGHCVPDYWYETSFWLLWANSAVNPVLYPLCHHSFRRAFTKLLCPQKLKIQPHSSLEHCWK
In short: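 Scintillation proximity format: bead-proximal [3H]-N-alpha-methylhistamine (approximately 1 nM final) bound to human H3 receptor in CHO membranes was counted after 4 h at room temperature, light-protected. Buffer was pH 7.4 Tris/MgCl2/BSA; test compounds spanned 0.01 nM-30 μM; 10 μM clobenpropit set non-specific binding.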

[2] = Table A, binding constant as letter class, read-out: Rat H3 Ki
[3] = Table B, binding constant as letter class, read-out: rat H3 Ki

T1 sequence (Q9QYN8 whole entry): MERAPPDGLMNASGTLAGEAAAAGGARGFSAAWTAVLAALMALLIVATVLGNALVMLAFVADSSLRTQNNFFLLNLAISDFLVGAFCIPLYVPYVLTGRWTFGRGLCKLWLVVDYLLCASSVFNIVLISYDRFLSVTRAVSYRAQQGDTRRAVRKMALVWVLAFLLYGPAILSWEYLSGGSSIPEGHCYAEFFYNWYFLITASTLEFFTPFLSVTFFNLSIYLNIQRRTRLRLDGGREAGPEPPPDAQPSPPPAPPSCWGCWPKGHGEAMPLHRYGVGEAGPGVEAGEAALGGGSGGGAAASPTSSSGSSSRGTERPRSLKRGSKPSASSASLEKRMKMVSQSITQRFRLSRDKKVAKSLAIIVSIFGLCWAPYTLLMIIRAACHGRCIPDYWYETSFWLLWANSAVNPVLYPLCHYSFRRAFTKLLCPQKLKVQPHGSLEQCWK

Row | Ki [1, 2] [nM] | Ki (human H3 receptor; Table A) [nM] | Ki [1, 3] [nM] | Ki (human H3 receptor; Table B) [nM] | Ki ([1]; Table B, cell prints a number instead of a letter, read-out: rat H3 Ki) [nM] | SMILES
1 | 0.1 to 100 | 0.1 to 100 |  |  |  | Cn1nc(-c2ccc(OCCCN3CCCCC3)cc2)c2ccccc2c1=O [Example 50, 2-Methyl-4-[4-(3-piperidin-1-yl-propoxy)-phenyl]-2H-phthalazin-1-one]
2 | > 1000 | 0.1 to 100 |  |  |  | Cn1nc(-c2ccc(OCCN3CCCCC3)cc2)c2ccccc2c1=O [Example 51, 2-Methyl-4-[4-(2-piperidin-1-yl-ethoxy)-phenyl]-2H-phthalazin-1-one]
3 | 0.1 to 100 | 0.1 to 100 |  |  |  | Cn1nc(-c2ccc(OCCCN3CCCC3)cc2)c2ccccc2c1=O [Example 52, 2-Methyl-4-[4-(3-pyrrolidin-1-yl-propoxy)-phenyl]-2H-phthalazin-1-one]
4 | 0.1 to 100 | 0.1 to 100 |  |  |  | Cn1nc(-c2ccc(OCCCN3CCCCCC3)cc2)c2ccccc2c1=O [Example 53, 4-[4-(3-Azepan-1-yl-propoxy)-phenyl]-2-methyl-2H-phthalazin-1-one]
5 | 0.1 to 100 | 0.1 to 100 |  |  |  | C[C@@H]1CCCN1CCCOc1ccc(-c2nn(Cc3ccc(Cl)cc3)c(=O)c3ccccc23)cc1 [Example 54, 2-(4-Chloro-benzyl)-4-{4-[3-((R)-2-methyl-pyrrolidin-1-yl)-propoxy]-phenyl}-2H-phthalazin-1-one]
6 | 0.1 to 100 | 0.1 to 100 |  |  |  | O=c1c2ccccc2c(-c2ccc(OCCCN3CCCCC3)cc2)nn1Cc1ccc(Cl)cc1 [Example 55, 2-(4-Chloro-benzyl)-4-[4-(3-piperidin-1-yl-propoxy)-phenyl]-2H-phthalazin-1-one]
7 | 0.1 to 100 | 0.1 to 100 |  |  |  | C[C@@H]1CCCN1CCCOc1ccc(-c2nn(C)c(=O)c3c2CCC3)cc1 [Example 56, 2-Methyl-4-{4-[3-((R)-2-methyl-pyrrolidin-1-yl)-propoxy]-phenyl}-2,5,6,7-tetrahydro-cyclopenta[d]pyridazin-1-one]
8 | 0.1 to 100 | 0.1 to 100 |  |  |  | Cn1nc(-c2ccc(OCCCN3CCCCC3)cc2)c2c(c1=O)CCC2 [Example 57, 2-Methyl-4-[4-(3-piperidin-1-yl-propoxy)-phenyl]-2,5,6,7-tetrahydro-cyclopenta[d]pyridazin-1-one]
9 | 0.1 to 100 | 0.1 to 100 |  |  |  | C[C@@H]1CCCN1CCCOc1ccc(C2=NN(C)C(=O)C3CCCC23)cc1 (stereo partly drawn) [Example 58, 2-Methyl-4-{4-[3-((R)-2-methyl-pyrrolidin-1-yl)-propoxy]-phenyl}-2,4a,5,6,7,7a-hexahydro-cyclopenta[d]pyridazin-1-one]
10 | 0.1 to 100 | 0.1 to 100 |  |  |  | CN1N=C(c2ccc(OCCCN3CCCCC3)cc2)C2CCCC2C1=O (stereo not drawn) [Example 59, 2-Methyl-4-[4-(3-piperidin-1-yl-propoxy)-phenyl]-2,4a,5,6,7,7a-hexahydro-cyclopenta[d]pyridazin-1-one]
11 | 0.1 to 100 | 0.1 to 100 |  |  |  | C[C@@H]1CCCN1CCCOc1ccc(-c2nn(C)c(=O)c3c2CCCC3)cc1 [Example 60, 2-Methyl-4-{4-[3-((R)-2-methyl-pyrrolidin-1-yl)-propoxy]-phenyl}-5,6,7,8-tetrahydro-2H-phthalazin-1-one]
12 | 0.1 to 100 | 0.1 to 100 |  |  |  | Cn1nc(-c2ccc(OCCCN3CCCCC3)cc2)c2c(c1=O)CCCC2 [Example 61]
13 | > 1000 | > 1000 |  |  |  | Cn1nc(-c2ccc(OCC3CCNCC3)cc2)c2ccccc2c1=O [Example 63, 2-Methyl-4-[4-(piperidin-4-ylmethoxy)-phenyl]-2H-phthalazin-1-one]
14 | 101 to 500 | 0.1 to 100 |  |  |  | Cn1nc(-c2ccc(OCC3CCN(C4CCC4)CC3)cc2)c2ccccc2c1=O [Example 64, 4-[4-(1-Cyclobutyl-piperidin-4-ylmethoxy)-phenyl]-2-methyl-2H-phthalazin-1-one]
15 | > 1000 | > 1000 |  |  |  | Cn1nc(-c2ccc(OCC3CCNCC3)cc2)ccc1=O [Example 66, 2-Methyl-6-[4-(piperidin-4-ylmethoxy)-phenyl]-2H-pyridazin-3-one]
16 | > 1000 | 101 to 500 |  |  |  | Cn1nc(-c2ccc(OCC3CCN(C4CCC4)CC3)cc2)ccc1=O [Example 67, 6-[4-(1-Cyclobutyl-piperidin-4-ylmethoxy)-phenyl]-2-methyl-2H-pyridazin-3-one]
17 | 101 to 500 | 0.1 to 100 |  |  |  | CC(C)N1CCC(COc2ccc(-c3ccc(=O)n(C)n3)cc2)CC1 [Example 68, 6-[4-(1-Isopropyl-piperidin-4-ylmethoxy)-phenyl]-2-methyl-2H-pyridazin-3-one]
18 | > 1000 | 101 to 500 |  |  |  | Cn1nc(-c2ccc(OCC3CCN(CC4CC4)CC3)cc2)ccc1=O [Example 69, 6-[4-(1-Cyclopropylmethyl-piperidin-4-ylmethoxy)-phenyl]-2-methyl-2H-pyridazin-3-one]
19 | 101 to 500 | 101 to 500 |  |  |  | Cn1nc(-c2ccc(OCC3CCN(C4CCCC4)CC3)cc2)ccc1=O [Example 70, 6-[4-(1-Cyclopentyl-piperidin-4-ylmethoxy)-phenyl]-2-methyl-2H-pyridazin-3-one]

Row | Ki [1, 2] [nM] | Ki (human H3 receptor; Table A) [nM] | Ki [1, 3] [nM] | Ki (human H3 receptor; Table B) [nM] | Ki ([1]; Table B, cell prints a number instead of a letter, read-out: rat H3 Ki) [nM] | SMILES
20 | 501 to 1000 | 101 to 500 |  |  |  | CN1CCC(COc2ccc(-c3ccc(=O)n(C)n3)cc2)CC1 [Example 71, 2-Methyl-6-[4-(1-methyl-piperidin-4-ylmethoxy)-phenyl]-2H-pyridazin-3-one]
21 | 0.1 to 100 | 0.1 to 100 |  |  |  | CC(C)N1CCC(Oc2ccc(-c3ccc(=O)n(C)n3)cc2)CC1 [Example 72]
22 | > 1000 | 501 to 1000 |  |  |  | Cn1nc(-c2ccc(OC3CCNCC3)cc2)ccc1=O [Example 73]
23 | 0.1 to 100 | 0.1 to 100 |  |  |  | Cn1nc(-c2ccc(OC3CCN(C4CCC4)CC3)cc2)ccc1=O [Example 74]
24 | 0.1 to 100 | 0.1 to 100 |  |  |  | C[C@@H]1CCCN1CCCOc1ccc2c(c1)CCc1cc(=O)n(C)nc1-2 [Example 75, 2-Methyl-8-[3-((R)-2-methyl-pyrrolidin-1-yl)-propoxy]-5,6-dihydro-2H-benzo[h]cinnolin-3-one]
25 | 0.1 to 100 | 0.1 to 100 |  |  |  | C[C@@H]1CCCN1CCCOc1ccc2c(c1)CCc1cc(=O)n(-c3ccccc3)nc1-2 [Example 76, 8-[3-((R)-2-Methyl-pyrrolidin-1-yl)-propoxy]-2-phenyl-5,6-dihydro-2H-benzo[h]cinnolin-3-one]
26 | 101 to 500 | 0.1 to 100 |  |  |  | O=c1cc2c(nn1Cc1ccccc1)-c1ccc(OCCCN3CCCCC3)cc1CC2 [Example 77, 2-Benzyl-8-(3-piperidin-1-yl-propoxy)-5,6-dihydro-2H-benzo[h]cinnolin-3-one]
27 | 0.1 to 100 | 0.1 to 100 |  |  |  | CC(C)n1nc2c(cc1=O)CCc1cc(OCCCN3CCCCC3)ccc1-2 [Example 78, 2-Isopropyl-8-(3-piperidin-1-yl-propoxy)-5,6-dihydro-2H-benzo[h]cinnolin-3-one]
28 | 0.1 to 100 | 0.1 to 100 | 0.1 to 100 | 0.1 to 100 |  | C[C@@H]1CCCN1CCCOc1ccc(-c2ccc(=O)n(-c3ccccc3)n2)cc1F [Example 81, 6-{3-Fluoro-4-[3-((R)-2-methyl-pyrrolidin-1-yl)-propoxy]-phenyl}-2-phenyl-2H-pyridazin-3-one]
29 |  |  | 0.1 to 100 | 0.1 to 100 |  | C[C@@H](COc1ccc(-c2ccc(=O)n(C)n2)cc1)CN1CCC[C@H]1C [Example 82, 2-Methyl-6-{4-[(R)-2-methyl-3-((R)-2-methyl-pyrrolidin-1-yl)-propoxy]-phenyl}-2H-pyridazin-3-one]
30 |  |  | 0.1 to 100 | 0.1 to 100 |  | C[C@@H]1CCCN1CCCOc1ccc(-c2ccc(=O)n(C)n2)cc1Cl [Example 85, 6-{3-Chloro-4-[3-((R)-2-methyl-pyrrolidin-1-yl)-propoxy]-phenyl}-2-methyl-2H-pyridazin-3-one]
31 |  |  | 0.1 to 100 | 0.1 to 100 |  | Cc1nn(C)c(=O)cc1-c1ccc(OCCCN2CCC[C@H]2C)cc1 [Example 86, 2,6-Dimethyl-5-{4-[3-((R)-2-methyl-pyrrolidin-1-yl)-propoxy]-phenyl}-2H-pyridazin-3-one]
32 |  |  | 0.1 to 100 | 0.1 to 100 |  | Cc1nn(C)c(=O)cc1-c1ccc(OCCCN2CCCCC2)cc1 [Example 87, 2,6-Dimethyl-5-[4-(3-piperidin-1-yl-propoxy)-phenyl]-2H-pyridazin-3-one]
33 |  |  | 0.1 to 100 | 0.1 to 100 |  | Cc1n[nH]c(=O)cc1-c1ccc(OCCCN2CCC[C@H]2C)cc1 [Example 88, 6-Methyl-5-{4-[3-((R)-2-methyl-pyrrolidin-1-yl)-propoxy]-phenyl}-2H-pyridazin-3-one]
34 |  |  | 0.1 to 100 | 0.1 to 100 |  | Cc1n[nH]c(=O)cc1-c1ccc(OCCCN2CCCCC2)cc1 [Example 89, 6-Methyl-5-[4-(3-piperidin-1-yl-propoxy)-phenyl]-2H-pyridazin-3-one]
35 |  |  |  | 0.1 to 100 | 5 | Cc1n[nH]c(=O)cc1-c1ccc(OCCCN2CCCCCC2)cc1 [Example 90, 5-[4-(3-Azepan-1-yl-propoxy)-phenyl]-6-methyl-2H-pyridazin-3-one]
36 |  |  | 0.1 to 100 | 0.1 to 100 |  | C[C@@H]1CCCN1CCCOc1ccc(-c2cnn(C)c(=O)c2)cc1 [Example 91, 2-Methyl-5-{4-[3-((R)-2-methyl-pyrrolidin-1-yl)-propoxy]-phenyl}-2H-pyridazin-3-one]
37 |  |  | 0.1 to 100 | 0.1 to 100 |  | Cn1ncc(-c2ccc(OCCCN3CCCCC3)cc2)cc1=O [Example 92, 2-Methyl-5-[4-(3-piperidin-1-yl-propoxy)-phenyl]-2H-pyridazin-3-one]
38 |  |  | 0.1 to 100 | 0.1 to 100 |  | Cn1ncc(-c2ccc(OCCCN3CCCCCC3)cc2)cc1=O [Example 93, 5-[4-(3-Azepan-1-yl-propoxy)-phenyl]-2-methyl-2H-pyridazin-3-one]

Source: US8586588B2, “Aryl pyridazinone derivatives and their use as H3 receptor ligands” (Cephalon, Inc., priority 2006, dated 2013)
